≈ marks a conversion by molar mass, not a printed value. Where a SMILES comes first, the peptide text is derived from it. Bridges are numbered along the chain shown (N, C = ends).
Assays:
S. epidermis ATCC 51625 = assay: microbe, parasite or virus in culture; format: cell-based, S. epidermidis; details: ATCC 51625, 24 h
Method: (§1) Strains were obtained from American Type Culture Collection (ATCC, Manassas, VA) or the clinical isolate collection at Trideum Biosciences (Frederick, MD, USA). Bioluminescence strains of P. aeruginosa 19660, transfected with the Xen5 luciferase gene, and S. aureus ATCC® 49525™ (Wright), transfected with the Xen36 luciferase gene, were obtained from Perkin Elmer (Hopkinton, MA).
(§2) A single colony was aseptically picked from an agar overlay and released in 25–30 mL of pre-warmed trypticase soy broth in a culture flask. Each culture was incubated overnight in a 37°C incubator. […] Pathogen growth was measured by absorbance at 600 nm. Four replicas were included for each test agent concentration. […]

[1] = system: mature (120 h) MRSA ATCC 1556 biofilm; format: cell-based, Staphylococcus aureus; details: mature (120 h) MRSA biofilm, 16 h treatment, CFU count, three technical replicates
[2] = rat plasma, 40 and 750 ng/mL, storage at −80°C, thaw at ambient temperature min 1 h, six replicates, LC-MS/MS
human red blood cells = assay: Human hemolysis assay; format: cell-based; details: 30 min, 37°C, absorbance 540 nm, duplicate
Method: […]. Distilled water was used as a control for 100% hemolysis with the background level of absorbance being water only (Stasiuk et al., [2004]). The percent hemolysis was calculated as (test wellAbs – backgroundAbs) / (100% lysisAbs – backgroundAbs). Experiments were run in duplicate.

MRSA 6313 = assay: microbe, parasite or virus in culture; format: cell-based, Staphylococcus aureus; details: MRSA 6313; 24-h incubation; mean of 3 replicates from 2 independent experiments
Method: as §1, §2

S. aureus 6061 = assay: microbe, parasite or virus in culture; format: cell-based, Staphylococcus aureus; details: 6061, 24 h
Method: as §1, §2

S. aureus B-767 = assay: microbe, parasite or virus in culture; format: cell-based, Staphylococcus aureus; details: B-767, 24 h
Method: as §1, §2

MRSA 6381 = assay: microbe, parasite or virus in culture; format: cell-based, Staphylococcus aureus; details: MRSA 6381; 24-h incubation; mean of 3 replicates from 2 independent experiments
Method: as §1, §2

MRSA ATCC 33592 = assay: microbe, parasite or virus in culture; format: cell-based, Staphylococcus aureus; details: MRSA ATCC 33592; 24-h incubation; mean of 3 replicates from 2 independent experiments
Method: as §1, §2

[3] = system: 6 hr MRSA ATCC 1556 biofilm; format: cell-based, Staphylococcus aureus; details: preformed (6 h) MRSA biofilm, 16 h treatment, CFU count, three technical replicates
E. cloacae 6054 = assay: microbe, parasite or virus in culture; format: cell-based; details: 6054, 24 h
Method: as §1, §2

C. parapsilosis Y-1763 = assay: microbe, parasite or virus in culture; format: cell-based; details: 24-h incubation, mean of 3 replicates from 2 independent experiments
Method: as §1, §2

E. cloacae 6053 = assay: microbe, parasite or virus in culture; format: cell-based; details: 6053, 24 h
Method: as §1, §2

C. parapsilosis Y-1761 = assay: microbe, parasite or virus in culture; format: cell-based; details: 24-h incubation, mean of 3 replicates from 2 independent experiments
Method: as §1, §2

C. albicans Y-326 = format: cell-based; details: 24-h incubation, mean of 3 replicates from 2 independent experiments
Method: as §1, §2

C. albicans Y-6359 = format: cell-based; details: 24-h incubation, mean of 3 replicates from 2 independent experiments
Method: as §1, §2

[4] = system: methicillin-resistant S. epidermidis biofilm; format: cell-based
Method: (§3) Biofilms (methicillin-resistant S. epidermidis, MRSE ATCC 51625 and multidrug resistant S. epidermidis MDR-SE ATCC 700578) were established following inoculation of 10^5 CFU/mL in Minimum Essential Media for 6 h or 5 days representing preformed or mature biofilm respectively, in plastic 96-well plates (Costar, Catalog #3595). […] Following test agent incubation, the media (including the planktonic cells) was removed and then the remaining biofilm treated with 50 μL 0.1% Triton X100 followed by agitating the plate on a rocker for 30 min. The biofilm was then disrupted with a 96 well replicator, the resultant mixture vortexed, samples serially diluted, plated on agar plates, and incubated overnight and CFUs subsequently counted. Three technical replicates were performed for each condition tested.

[5] = system: MDR S. epidermidis ATCC 700578 biofilm; format: cell-based; details: CFU count
Method: as §3

[6] = pooled normal human serum, 200 μg/mL, 72 h, 37°C, LC-MS/MS, triplicate
[7] = system: P. aeruginosa P14 biofilm; format: cell-based, Pseudomonas aeruginosa; details: CFU count
K. pneumonia ATCC 10031 = assay: microbe, parasite or virus in culture; format: cell-based, Klebsiella pneumoniae; details: ATCC 10031, 24 h
Method: as §1, §2

K. pneumonia 6066 = assay: microbe, parasite or virus in culture; format: cell-based, Klebsiella pneumoniae; details: 24 h
Method: as §1, §2

K. pneumonia 6069 = assay: microbe, parasite or virus in culture; format: cell-based, Klebsiella pneumoniae; details: 24 h
Method: as §1, §2

[8] = system: murine L929 fibroblast cells; assay: Fibroblast cytotoxicity, bioluminescence; format: cell-based; details: 64 μg/mL (maximum concentration evaluated), 24 h incubation
Method: Non-invasive real-time evaluation of viability, mammalian, and bacterial cells, was performed using bioluminescent human keratinocytes (HaCaT, AddexBio, San Diego, CA) and murine L929 fibroblast cells (ATCC, Manassas, VA). The bioluminescent variants were constructed by transfection with a luciferase gene (RediFect Red-Fluc-Puromycin, Catalog #CL596002) (Hamblin et al., [2003]). […] Each concentration was performed in triplicate. Bioluminescence imaging was performed at pre-specified times (0, 15, and 30 min and 1, 3, 5, 8, and 24 h) and compared to concurrently run vehicle-controls. The 96-well plate was positioned on the stage (12.5-cm field of view) within the in vivo Imaging System (IVIS) imaging system (Caliper Life Sciences, Inc., Hopkinton, MA, USA), with an open emission filter, binning of 4, and f-stop 1, and a 1-min exposure time. The resultant photons emitted from the live cells were quantified using Living Image® software (version 4.3, Caliper Life Sciences, Inc.). Monitoring bioluminescence allows assessment of the kinetics of cellular viability as there is a tight correlation between photon count imaging and viable counts (Kadurugamuwa et al., [2003]).

Structure (SMILES): CC[C@H](C)[C@@H]1NC(=O)CNC(=O)[C@H](CCCCN)NC(=O)[C@H](Cc2ccc(O)cc2)NC(=O)[C@@H]2CSSC[C@H](NC1=O)C(=O)N[C@@H](Cc1ccccc1)C(=O)N[C@@H](CCCCN)C(=O)N[C@@H](CCCCN)C(=O)N[C@H](C(=O)N[C@@H](CCCCN)C(N)=O)CSSC[C@H](NC(=O)[C@H](Cc1ccccc1)NC(=O)[C@@H](N)CCCNC(=N)N)C(=O)N[C@@H](Cc1c[nH]c3ccccc13)C(=O)N[C@@H](CCCCN)C(=O)N[C@@H](C(C)C)C(=O)N2 [RP557] (H-RFCWKVCYKGICFKKCK-NH2; disulfide 3-16, 7-12)
- Minimum Inhibitory Concentration (MIC) (S. epidermis ATCC 51625): 4.0 [8] μM
- EC90 (concentration to reduce biofilm by 90%) [1]: 2 µg/mL (≈ 0.936 µM)
- Degradation after three freeze-thaw cycles [2]: did not show signs of degradation
- Minimum hemolytic concentration required to cause 10% hemolysis, MHC (human red blood cells): 128 µg/mL
- Minimum Inhibitory Concentration (MIC) (MRSA 6313): 2.0 [4] μM
- Minimum Inhibitory Concentration (MIC) (S. aureus 6061): 4.0 [8] μM
- Minimum Inhibitory Concentration (MIC) (S. aureus B-767): 2.0 [4] μM
- Minimum Inhibitory Concentration (MIC) (MRSA 6381): 2.0 [4] μM
- Minimum Inhibitory Concentration (MIC) (MRSA ATCC 33592): 2.0 [4] μM
- EC90, biofilm CFU [3]: 6 µg/mL (≈ 2.81 µM)
- Minimum Inhibitory Concentration (MIC) (E. cloacae 6054): 4.0 [8] μM
- Minimum Inhibitory Concentration (MIC) (C. parapsilosis Y-1763): 1.0 [2] μM
- Minimum Inhibitory Concentration (MIC) (E. cloacae 6053): 4.0 [8] μM
- Minimum Inhibitory Concentration (MIC) (C. parapsilosis Y-1761): 8.0 [16] μM
- Minimum Inhibitory Concentration (MIC) (C. albicans Y-326): 8.0 [16] μM
- Minimum Inhibitory Concentration (MIC) (C. albicans Y-6359): 2.0 [4] μM
- EC90, biofilm [4]: 8 µg/mL (≈ 3.75 µM)
- EC90, biofilm [5]: 8 µg/mL (≈ 3.75 µM)
- Degradation in human serum [6]: did not degrade
- EC50, biofilm [7]: 32 µg/mL (≈ 15 µM)
- Minimum Inhibitory Concentration (MIC) (K. pneumonia ATCC 10031): 4.0 [8] μM
- Minimum Inhibitory Concentration (MIC) (K. pneumonia 6066): 4.0 [8] μM
- Minimum Inhibitory Concentration (MIC) (K. pneumonia 6069): 2.0 [4] μM
- Fibroblast cell killing [8]: limited fibroblast cell killing

Reference: publication PMC6667648 (Frontiers in Microbiology, 2019)
